In ChEMBL document CHEMBL5620368, “Molecular-level strategic goals and repressors in Leishmaniasis - Integrated data to accelerate target-based heterocyclic scaffolds” (Eur J Med Chem, 2023):
In brackets after ≈: the same amount, converted by molar mass.

Key:
[1] = Inhibition of Leishmania infantum Trypanothione reductase
[2] = system: Leishmania infantum; test: Antileishmanial activity against Leishmania infantum MCAN/ES/ 89/IPZ229/1/89 axenic amastigotes assessed as reduction in parasite viability treated for 24 hrs by PI staining based flow cytometry; type: functional, organism-based; conditions: MCAN/ES/ 89/IPZ229/1/89, 24 h
[3] = system: Leishmania infantum; test: Antileishmanial activity against Leishmania infantum MCAN/ES/ 89/IPZ229/1/89 promastigote assessed as reduction in parasite viability incubated for 24 hrs by PI staining based flow cytometry; type: functional, organism-based; conditions: MCAN/ES/ 89/IPZ229/1/89, 24 h
[4] = system: Leishmania mexicana; test: Antileishmanial activity against Leishmania mexicana promastigotes MHOM/B2/62/BEL21 assessed as reduction in parasite growth by tryphan blue staining based analysis; type: functional, organism-based
[5] = molecular target: T1, DNA topoisomerase I (Leishmania donovani (strain BPK282A1), UniProt E9BRC0); test: Inhibition of Leishmania donovani DNA topoisomerase I
T1 sequence (E9BRC0 whole entry): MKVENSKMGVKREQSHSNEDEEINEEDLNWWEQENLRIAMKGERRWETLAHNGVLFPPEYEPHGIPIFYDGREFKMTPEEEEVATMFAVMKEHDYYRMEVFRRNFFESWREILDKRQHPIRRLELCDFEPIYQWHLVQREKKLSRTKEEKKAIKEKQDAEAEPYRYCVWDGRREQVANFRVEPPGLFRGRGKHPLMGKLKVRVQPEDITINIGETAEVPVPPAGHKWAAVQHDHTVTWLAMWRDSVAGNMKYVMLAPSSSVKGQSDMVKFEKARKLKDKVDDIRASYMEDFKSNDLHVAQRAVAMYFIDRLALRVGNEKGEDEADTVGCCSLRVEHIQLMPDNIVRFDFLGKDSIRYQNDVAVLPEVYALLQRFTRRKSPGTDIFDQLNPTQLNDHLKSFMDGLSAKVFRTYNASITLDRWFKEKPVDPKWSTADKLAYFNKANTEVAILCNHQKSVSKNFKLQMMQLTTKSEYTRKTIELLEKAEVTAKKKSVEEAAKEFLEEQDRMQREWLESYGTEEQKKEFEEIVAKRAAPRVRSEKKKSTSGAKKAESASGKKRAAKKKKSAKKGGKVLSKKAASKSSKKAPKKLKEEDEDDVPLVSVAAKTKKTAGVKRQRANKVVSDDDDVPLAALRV

[6] = Inhibition of Leishmania braziliensis DNA topoisomerase I
[7] = molecular target: T2, Arginase (Leishmania amazonensis, UniProt O96394); test: Inhibition of Leishmania amazonensis Arginase
[8] = molecular target: T2, Arginase; test: Inhibition of Leishmania amazonensis Arginase assessed as inhibition constant
[9] = system: Leishmania donovani; test: Antileishmanial activity against Leishmania donovani Ag83 amastigotes infected in BALB/c mouse macrophage assessed as cell viability incubated for 48 hrs by PI staining based analysis; type: functional, organism-based; conditions: Ag83, 48 h
[10] = system: Leishmania infantum; test: Inhibition of Leishmania infantum promastigotes Arginase expressed in Escherichia coli BL21 (DE3) at 100 uM by enzymatic assay relative to control
[11] = system: Leishmania infantum; test: Inhibition of Leishmania infantum Arginase expressed in Escherichia coli BL21 (DE3) at 100 uM by enzymatic assay relative to control
[12] = system: Leishmania donovani; test: Antileishmanial activity against Leishmania donovani MHOM/IN/83/AG83 promastigotes infected in BALB/c mouse assessed as reduction of parasite burden in spleen at 20 mg/kg per day relative to control; type: functional; design: scale not given: the % may be the effect or the level left
[13] = system: Leishmania amazonensis; test: Antiprotozoal activity against Leishmania amazonensis axenic amastigotes assessed as growth inhibition measured after 5 days by MTT assay; type: functional, organism-based; conditions: 120 h
[14] = Inhibition of recombinant rat liver arginase
[15] = system: Leishmania infantum; test: Antileishmanial activity against GFP-expressing Leishmania infantum intracellular amastigotes infected in human THP-1 derived macrophage cells assessed as reduction in parasite viability measured for 72 hrs by resazurin/alamar blue fluorometric assay; type: functional, organism-based; conditions: THP-1, 72 h
[16] = system: Leishmania amazonensis; test: Antileishmanial activity against Leishmania amazonensis promastigotes assessed as parasite growth inhibition incubated for 24 hrs; type: functional, organism-based
[17] = system: Leishmania amazonensis; test: Antileishmanial activity against Leishmania amazonensis axenic amastigote assessed as inhibition of parasite growth incubated for 72 hrs by MTT colorimetric assay; type: functional, organism-based
[18] = system: Leishmania amazonensis; test: Antileishmanial activity against Leishmania amazonensis axenic promastigotes assessed as inhibition of parasite growth incubated for 72 hrs by MTT colorimetric assay; type: functional, organism-based
[19] = system: Leishmania donovani; test: Antileishmanial activity against Leishmania donovani promastigotes assessed as parasite growth inhibition incubated for 72 hrs by Alamar blue staining based analysis; type: functional, organism-based
[20] = system: Leishmania donovani; test: Antileishmanial activity against Leishmania donovani intracellular amastigotes assessed as parasite growth inhibition; type: functional, organism-based
[21] = system: Leishmania amazonensis; test: Antileishmanial activity against Leishmania amazonensis intracellular amastigotes assessed as parasite growth inhibition; type: functional, organism-based
[22] = system: Leishmania infantum; test: Antileishmanial activity against Leishmania infantum amastigotes assessed as inhibition of parasite growth; type: functional, organism-based
[23] = system: Leishmania donovani; test: Antileishmanial activity against Leishmania donovani MHOM/IN/1983/AG83 promastigote assessed as reduction in parasite growth incubated for 12 hrs by MTT assay; type: functional, organism-based; conditions: MHOM/IN/1983/AG83, 12 h
[24] = system: Leishmania donovani; test: Antileishmanial activity against Leishmania donovani promastigotes infected in hamster assessed as reduction in parasite load in spleen; type: functional, organism-based
[25] = system: Leishmania infantum; test: Antileishmanial activity against Leishmania infantum infected in BALB/c mouse assessed as reduction of parasite burden in spleen at 2.5 mg/kg for 15 days relative to control; type: functional; design: scale not given: the % may be the effect or the level left; conditions: time 15 day
[26] = system: Leishmania amazonensis; test: Antileishmanial activity against Leishmania amazonensis promastigotes assessed as reduction in parasite growth after 72 hrs by CCK-8 assay; type: functional, organism-based
[27] = system: Leishmania donovani; test: Antileishmanial activity against Leishmania donovani promastigotes infected in golden hamster assessed as reduction in parasite load in spleen at 3 mg/kg administered twice per week for 4 weeks relative to control; type: functional; design: scale not given: the % may be the effect or the level left

NCCNCc1nccn1-c1ccc(-c2nc(CCc3ccccc3-c3ccccc3)cs2)c(OCCN2CCNC2=O)c1
IC50 [1]: 8.6 µM | EC50 [2]: 5.3 µM | EC50 [3]: 5.3 µM

Cc1ccc2c(c1)C1c3ccccc3CC1C(c1ccccn1)N2 (centres undefined)
IC50 [4]: 1 µg/mL (≈ 3.2 µM)

CC(=O)Oc1ccc(OC(C)=O)c2cc3c(cc12)CCCC3(C)C
IC50 [5]: > 100 µM

O=C1C(O)=C(CC2=C(O)C(=O)c3ccccc3C2=O)C(=O)c2ccccc21
IC50 [6]: 71 µM

CCCCCCCCCCCCCCCCOP(=O)([O-])OCC[N+](C)(C)C [MILTEFOSINE]
IC50 [4]: 2.18 µg/mL (≈ 5.35 µM)

NCCNCc1nccn1-c1ccc(-c2nc(CCc3cccc4ccccc34)cs2)c(OCCN2CCNC2=O)c1
IC50 [1]: 5.1 µM | EC50 [2]: 12.8 µM | EC50 [3]: 12.8 µM

CC1OC(O[C@H]2[C@H](O)[C@@H](OCCc3ccc(O)c(O)c3)OC(CO)[C@H]2OC(=O)/C=C/c2ccc(O)c(O)c2)C(O)C(O)C1O (some centres undefined)
IC50 [7]: 14 µM | Ki [8]: 26 µM

C/C=C1/CN(C)[C@H]2Cc3c([nH]c4ccccc34)[C@H](c3cc4[nH]c5c(c4cc3OC)CCN3C[C@@H]4C[C@H](CC)[C@H]3[C@@]5(C(=O)OC)C4)C[C@@H]1C2C(=O)OC (some centres undefined)
EC50 [9]: 1.68 µM

O=C(/C=C/c1ccc(O)c(O)c1)O[C@@H](Cc1ccc(O)c(O)c1)C(=O)O
IC50 [7]: 28 µM | Ki [8]: 1.3 µM

O=C(/C=C/c1ccc(F)cc1)c1ccccc1Cl
inhibition [10]: 74.1% | inhibition [11]: 72.3%

C[C@@H]1[C@H](O)[C@@H](C)/C=C/C=C/C=C/C=C/C=C/C=C/C=C/[C@H](O[C@@H]2O[C@H](C)[C@@H](O)[C@H](N)[C@@H]2O)C[C@@H]2O[C@](O)(C[C@@H](O)C[C@@H](O)[C@H](O)CC[C@@H](O)C[C@@H](O)CC(=O)O[C@H]1C)C[C@H](O)[C@H]2C(=O)O [AMPHOTERICIN B]
IC50 [4]: 0.036 µg/mL (≈ 0.039 µM)

sodium antimony gluconate
Activity [12]: 97%

COc1ccc2c(c[n+](C)c3c4cc5c(cc4ccc23)OCO5)c1OC [CHELERYTHRINE]
IC50 [13]: 0.03 µM

O=C(O[C@@H]1Cc2c(O)cc(O)cc2O[C@@H]1c1cc(O)c(O)c(O)c1)c1cc(O)c(O)c(O)c1 [EPIGALOCATECHIN GALLATE]
IC50 [14]: 3.8 µM

Oc1cc(O)c2c(c1)O[C@H](c1ccc(O)c(O)c1)[C@@H](O)C2 [CIANIDANOL]
IC50 [14]: 1.8 µM

O=C(/C=C/c1ccc([N+](=O)[O-])cc1)c1ccc(Br)cc1
inhibition [10]: 55.2% | inhibition [11]: 71.9%

Oc1cc(O)c2c(c1)O[C@@H](c1ccc(O)c(O)c1)[C@H](O)C2 [(-)-CATECHIN]
IC50 [14]: 0.77 µM

O=C(Cc1cccc2ccccc12)Nc1ccc([Se][Se]c2ccc(NC(=O)c3cccc4ccccc34)cc2)cc1
EC50 [15]: 0.5 µM

CC(C)CN(C[C@@H](O)[C@H](Cc1ccccc1)NC(=O)O[C@H]1CCOC1)S(=O)(=O)c1ccc(N)cc1 [AMPRENAVIR]
Activity [12]: 98%

COC[C@@H](Cc1ccc(OC)c(OC)c1)[C@@H](COC)Cc1cc(OC)c2c(c1)OCO2
EC50 [9]: 1.26 µM

COc1cc2c3c(c1)Oc1c(OC)c(OC)c(OC)c4c1C(Cc1ccc(cc1)Oc1cc(ccc1OC)C[C@H]3N(C)CC2)N(C)CC4 (some centres undefined)
IC50 [5]: 50 µM

CC(=O)Cc1ccccc1C(F)(F)C(=O)NNc1ccccc1
IC50 [7]: 12.7 µM

O=C1C(O)=C(C(C2=C(O)C(=O)c3ccccc3C2=O)c2ccc(F)cc2)C(=O)c2ccccc21
IC50 [6]: 0.6 µM

CCN(CC)CCOC(=O)c1ccc(NCCC(=O)c2ccc([N+](=O)[O-])cc2)cc1
IC50 [16]: 12.4 µM

COc1cccc2c1C(=O)c1c(O)c3c(c(O)c1C2=O)C[C@@](O)(C(=O)CO)C[C@@H]3O[C@H]1C[C@H](N)[C@H](O)[C@H](C)O1 [DOXORUBICIN]
IC50 [17]: 12 µM | IC50 [18]: 11.8 µM

COc1cc(C)cc2c1C(=O)C1OC1(c1c(C)cc3c(c1OC)C(=O)C1OC1C3=O)C2=O (centres undefined)
IC50 [19]: 20.7 µM | IC50 [20]: 20.7 µM | IC50 [21]: 0.18 µM

COc1cccc(C2Nc3cccnc3[C@H]3c4ccccc4C[C@@H]23)c1 (some centres undefined)
IC50 [22]: 0.54 µM

CCc1ccc2c(c1)C1c3ccccc3CC1C(c1ccccn1)N2 (centres undefined)
IC50 [4]: 1 µg/mL (≈ 3.06 µM)

COc1c(O)ccc2c1c[n+](C)c1c3cc4c(cc3ccc21)OCO4
IC50 [13]: 0.54 µM

O=c1c(O)c(-c2ccc(O)c(O)c2)oc2cc(O)cc(O)c12 [QUERCETIN]
IC50 [7]: 4.3 µM

O=C(O)c1cc(O)c(O)c(O)c1 [GALLIC ACID]
IC50 [14]: 3.8 µM

COc1ccc([C@@H]2Cc3cc(OC)c(O)cc3[C@H](CO)[C@@H]2COC2OCC(O)[C@@H](O)[C@H]2O)cc1O (some centres undefined)
EC50 [9]: 1.84 µM

O=c1cc(-c2ccccc2)oc2c(O)c(O)ccc12 [7,8-DIHYDROXYFLAVONE]
IC50 [7]: 12 µM

O=C1OC(c2ccc(Cl)cc2)c2cc(-c3ccc(Cl)cc3)cc(O)c21 (centres undefined)
IC50 [23]: 5.4 µM | IC50 [24]: 9.81 µM

O=c1c(O)c(-c2ccc(O)c(O)c2)oc2cc(O)ccc12 [FISETIN]
IC50 [7]: 1.4 µM

COc1ccc(C(C2=C(O)C(=O)c3ccccc3C2=O)C2=C(O)C(=O)c3ccccc3C2=O)cc1
IC50 [6]: > 100 µM

CO[C@@]12[C@H](COC(N)=O)C3=C(C(=O)C(C)=C(N)C3=O)N1C[C@@H]1N[C@@H]12 [MITOMYCIN]
IC50 [17]: 11.5 µM | IC50 [18]: 12.8 µM

COc1cc2c3c(n(CCCN4CCOCC4)c(=O)c2cc1OC)-c1cc2c(cc1C3=O)OCO2 [INDOTECAN]
Activity [25]: 80%

O=c1cc(-c2ccc(O)c(O)c2)oc2c(C3OC(CO)[C@@H](O)[C@@H](O)[C@@H]3O)c(O)cc(O)c12 (some centres undefined)
IC50 [26]: 15.9 µM

O=C(CC12CC3CC(CC(C3)C1)C2)Nc1ccc([Se][Se]c2ccc(NC(=O)C34CC5CC(CC(C5)C3)C4)cc2)cc1
EC50 [15]: 1.19 µM

O=C(Nc1ccc(F)c(-c2ccn3c(N4CCOCC4)cnc3n2)c1)N1CCCC1 [GSK-3494245]
Activity [27]: 95%

Cc1cc2c(c(=O)[nH]1)C(=O)O/C2=C/c1ccccc1
EC50 [9]: 1 µM

COc1ccc(C(=O)/C=C/c2ccc([N+](=O)[O-])cc2)cc1
inhibition [10]: 70.4% | inhibition [11]: 69.5%

Fc1ccc(C2Nc3cccnc3[C@H]3c4ccccc4C[C@@H]23)c(F)c1 (some centres undefined)
IC50 [22]: 0.67 µM

CCCCCC(C1=C(O)C(=O)c2ccccc2C1=O)C1=C(O)C(=O)c2ccccc2C1=O
IC50 [6]: 5.2 µM

O=C1c2ccccc2-c2c1c1ccc([N+](=O)[O-])cc1c(=O)n2CCCN1CCOCC1
Activity [25]: 80%

O=c1cc(-c2ccc(O)c(O)c2)oc2cc(O)cc(O)c12 [LUTEOLIN]
IC50 [7]: 9 µM

CCCCCCCCCCCCCCCC#CC(=O)O
IC50 [5]: 5.3 µM

O=C(c1ccc(Br)cc1)c1cc(O)cc(-c2ccc(Br)cc2)c1
IC50 [23]: 6.01 µM | IC50 [24]: 11.5 µM
